Results reported in patent publication US12478623B2 (INTRA-CELLULAR THERAPIES, INC., priority 2019, dated 2025).

How the values were obtained:
[1] = tested on: Male Wistar rats; assay: Conditioned avoidance response (CAR) test, Example 1; type: in vivo, rat; conditions: for Suppression of CAR: 20 minutes; for Treatment effect in CAR: FIG. 2
[2] = tested on: schizophrenic patients; conditions: cited from earlier work
[3] = tested on: social defeat model; conditions: in vivo; cited from earlier work
[4] = tested on: pyramidal cells in rat mPFC slices; conditions: lumateperone alone; cited from earlier work
[5] = tested on: mTOR pathway, including protein kinase Akt and p70S6 kinase; conditions: cited from earlier work
[6] = tested on: patients with acute exacerbated schizophrenia; conditions: 60 mg P.O. once daily for up to 28 days, vs placebo; cited from earlier work
[7] = schizophrenia with co-morbid depression

SMILES	Suppression of CAR ([1]; lumateperone 7 mg/kg i.p. (saline), vs vehicle/saline, FIG. 3)	CAR, comparison between groups ([1]; lumateperone 7 mg/kg, 90 minutes, vs lumateperone 3 mg/kg/saline, FIG. 4)	Suppression of CAR ([1]; lumateperone tosylate 3 mg/kg i.p., vs vehicle, FIG. 1)	Suppression of CAR ([1]; lumateperone tosylate 10 mg/kg i.p., vs vehicle, FIG. 1)	Treatment effect in CAR ([1]; lumateperone tosylate 10 mg/kg i.p., 90 minutes)	Depressive symptoms [2, 7]	Safety profile [2, 7]	Social functioning, positive and negative symptoms, cognition ([2]; schizophrenic patients, at a low striatal D2 receptor occupancy)	Effect in the social defeat model [3]	NMDA and AMPA receptor-induced currents [4]	Phosphorylation of mTOR pathway proteins [5]	Symptoms of emotional experience [6]	Suppression of CAR ([1]; risperidone 0.4 mg/kg i.p., vs vehicle, FIG. 1)	Treatment effect in CAR ([1]; risperidone 0.4 mg/kg i.p., 90 minutes)
CN1CCN2c3c(cccc31)[C@@H]1CN(CCCC(=O)c3ccc(F)cc3)CC[C@@H]12 [lumateperone, 4-((6bR,10aS)-3-methyl-2,3,6b,9,10,10a-hexahydro-1H-pyrido[3′,4′: 4,5]pyrrolo[1,2,3-de]quinoxalin-8(7H)-yl)-1-(4-fluorophenyl)-1-butanone]	significantly suppressed CAR compared to vehicle/saline	significantly different than lumateperone (3 mg/kg)/saline	significantly suppressed CAR compared to vehicle	significantly suppressed CAR compared to vehicle	significant treatment effect	improves the depressive symptoms	placebo-level safety profile and no metabolic changes or extra-pyramidal side effects	significantly improve social functioning, positive and negative symptoms, as well as impaired cognition	antidepressant-like effects	activates both NMDA and AMPA receptor-induced currents	increases phosphorylation of key proteins in the mTOR pathway	significant and unexpected improvement in symptoms of emotional experience compared to placebo	–	–
Cc1nc2n(c(=O)c1CCN1CCC(c3noc4cc(F)ccc34)CC1)CCCC2 [risperidone]	–	–	–	–	–	–	–	–	–	–	–	–	significantly suppressed CAR compared to vehicle	not for the other doses or for risperidone
